Measurements published in patent US20240199587A1, “HETEROCYCLIC COMPOUNDS” (Hoffmann-La Roche Inc., priority 2021, published 2024).

Target: T1, MAGL (Homo sapiens, UniProt Q99685)
T1 sequence (Q99685 1-303): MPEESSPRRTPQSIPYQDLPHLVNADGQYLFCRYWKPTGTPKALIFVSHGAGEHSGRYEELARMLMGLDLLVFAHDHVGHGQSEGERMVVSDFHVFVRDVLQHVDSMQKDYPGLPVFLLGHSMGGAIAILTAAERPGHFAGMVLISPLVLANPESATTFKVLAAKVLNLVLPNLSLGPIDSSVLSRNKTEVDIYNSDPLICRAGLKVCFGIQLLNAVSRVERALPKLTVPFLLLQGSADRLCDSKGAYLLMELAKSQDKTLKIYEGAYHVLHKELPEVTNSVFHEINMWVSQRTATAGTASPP
Experiment: 2-AG assay (MAGL inhibitory activity, hydrolysis of 2-arachidonoylglycerol to arachidonic acid followed by mass spectrometry)
Type: biochemical
Settings: 8 μM 2-arachidonoylglycerol, 15 min pre-incubation, 30 min incubation at RT, RapidFire MS readout
Outline: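 Arachidonic acid released from 8 μM 2-arachidonoylglycerol was quantified by online SPE triple-quadrupole MS (negative ESI, 303.1→259.1), normalised to d8-arachidonic acid internal standard. Reaction ran 30 min at RT after 15 min RT compound pre-incubation with […] MAGL in TRIS/EDTA/Tween-20 buffer, 2.5% DMSO.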

SMILES	IC50 [nM]
O=C(N1CC2(CC(n3cnc(C4CC4)n3)C2)C1)N1CCC(OCC2(C(F)(F)F)CC2)C2(CC2)C1 (stereo not drawn) [Example 149, [6-(3-cyclopropyl-1,2,4-triazol-1-yl)-2-azaspiro13.31heptan-2-yl]−[8-[[1-(trifluoromethyl)cyclopropyl]methoxy]-5-azaspiro[2.5]octan-5-yl]methanone]	441
O=C(N1CC(C#Cc2ccc(OC(F)F)cc2)C1)N1CC2(CC(n3cnc(C4CC4)n3)C2)C1 [Example 92, [6-(3-cyclopropyl-1,2,4-triazol-1-yl)-2-azaspiro[3.3]heptan-2-yl]-[3-[2-[4-(difluoromethoxy)phenyl]ethynyl]azetidin-1-yl]methanone]	11.7
CS(=O)(=O)c1ccc(CC2CC3(C2)CN(C(=O)N2CC4(CC(n5cnc(C6CC6)n5)C4)C2)C3)nc1 [Example 488, [6-(3-cyclopropyl-1,2,4-triazol-1-yl)-2-azaspiro[3.3]heptan-2-yl]-[6-[(5-methylsulfonyl-2-pyridyl)methyl]-2-azaspiro[3.3]heptan-2-yl]methanone]	4.41
O=C(N1C[C@H]2C[C@H](Oc3ccc(OC(F)F)cc3F)C[C@H]2C1)N1CC2(CC(n3cnc(C4CC4)n3)C2)C1 [Example 112, [6-(3-cyclopropyl-1,2,4-triazol-1-yl)-2-azaspiro[3.3]heptan-2-yl]−[rac-(3aS,6aR)-5-[4-(difluoromethoxy)-2-fluoro-phenoxy]-3,3a,4,5,6,6a-hexahydro-1H-cyclopenta[c]pyrrol-2-yl]methanone]	6
CNC(=O)[C@H](c1ccc(F)cc1)N1CCN(C(=O)N2CC3(CC(n4cnc(C5CC5)n4)C3)C2)CC1 [Example 330, (2S)-2-[4-[6-(3-cyclopropyl-1,2,4-triazol-1-yl)-2-azaspiro[3.3]heptane-2-carbonyl]piperazin-1-yl]-2-(4-fluorophenyl)-N-methyl-acetamide]	744
CP(C)(=O)c1ccc(CC2CC3(C2)CN(C(=O)N2CC4(CC(n5cnc(C(F)(F)F)n5)C4)C2)C3)cc1 [Example 375, [6-[(4-dimethyl-phosphorylphenyl)methyl]-2-azaspiro[3.3]heptan-2-yl]-[6-[3-(trifluoromethyl)-1,2,4-triazol-1-yl]-2-azaspiro[3.3]heptan-2-yl]methanone]	12.7
O=C(N1CC2(CC(n3cnc(C4CC4)n3)C2)C1)N1CC2(C1)CN(S(=O)(=O)C1CCCCC1)C2 [Example 224, (2-cyclohexylsulfonyl-2,6-diazaspiro[3.3]heptan-6-yl)-[6-(3-cyclopropyl-1,2,4-triazol-1-yl)-2-azaspiro[3.3]heptan-2-yl]methanone]	3
CC(C)(C)c1nc(-c2ccc(C(=O)N3CC4(CC(n5cc(Cl)cn5)C4)C3)cc2)no1 [Example 6, [4-(5-tert-butyl-1,2,4-oxadiazol-3-yl)phenyl]-[6-(4-chloropyrazol-1-yl)-2-azaspiro[3.3]heptan-2-yl]methanone]	191
N=S(=O)(c1ccc(CC2CC3(C2)CN(C(=O)N2CC4(CC(n5cnc(C6CC6)n5)C4)C2)C3)cc1)C(F)(F)F (stereo not drawn) [Example 446, [6-(3-cyclopropyl-1,2,4-triazol-1-yl)-2-azaspiro[3.3]heptan-2-yl]-[6-[[4-(trifluoromethylsulfonimidoyl)phenyl]methyl]-2-azaspiro[3.3]heptan-2-yl]methanone]	0.06
O=C(N1CC2(CC(Oc3ccc(C(F)(F)F)cn3)C2)C1)N1CC2(CC(n3cnc(C4CC4)n3)C2)C1 [Example 52, [6-(3-cyclopropyl-1,2,4-triazol-1-yl)-2-azaspiro[3.3]heptan-2-yl]-[6-[[5-(trifluoromethyl)-2-pyridyl]oxy]-2-azaspiro[3.3]heptan-2-yl]methanone]	0.4
O=C(N1CC(Oc2ccc(Cl)c(C3CC3)c2)C1)N1CC2(CC(n3cnc(C4CC4)n3)C2)C1 [Example 95, (3-(4-chloro-3-cyclopropylphenoxy)azetidin-1-yl)(6-(3-cyclopropyl-1H-1,2,4-triazol-1-yl)-2-azaspiro[3.3]heptan-2-yl)methanone]	1.2
COc1c(OC2CN(C(=O)N3CC4(CC(n5cnc(C6CC6)n5)C4)C3)C2)cccc1C(F)(F)F [Example 219, (6-(3-cyclopropyl-1H-1,2,4-triazol-1-yl)-2-azaspiro[3.3]heptan-2-yl)(3-(2-methoxy-3-(trifluoromethyl)phenoxy)azetidin-1-yl)methanone]	2.2
COc1cc(C(F)(F)F)ccc1CNC1CN(C(=O)N2CC3(CC(n4cnc(C(F)(F)F)n4)C3)C2)C1 [Example 451, [3-[[2-methoxy-4-(trifluoromethyl)phenyl]methylamino]azetidin-1-yl]-[6-[3-(trifluoromethyl)-1,2,4-triazol-1-yl]-2-azaspiro[3.3]heptan-2-yl]methanone]	31.7
O=C(N1CC2(CC(n3cnc(C4CC4)n3)C2)C1)N1CC2(C1)CN(S(=O)(=O)c1ccc(F)cc1F)C2 [Example 231, [6-(3-cyclopropyl-1,2,4-triazol-1-yl)-2-azaspiro[3.3]heptan-2-yl]-[2-(2,4-difluorophenyl)sulfonyl-2,6-diazaspiro[3.3]heptan-6-yl]methanone]	4.6
CC(C)(C)c1nc(-c2ccc(C(=O)N3CC4(CC(n5cnc(C6CC6)n5)C4)C3)cc2)no1 [Example 3, [4-(5-tert-butyl-1,2,4-oxadiazol-3-yl)phenyl]−[6-(3-cyclopropyl-1,2,4-triazol-1-yl)-2-azaspiro[3.3]heptan-2-yl]methanone]	5.1
O=C(N1CC(c2ccc(NC3(C(F)(F)F)CC3)nc2)C1)N1CC2(CC(n3cnc(C4(O)CC4)n3)C2)C1 [Example 492, [6-[3-(1-hydroxycyclopropyl)-1,2,4-triazol-1-yl]-2-azaspir[3.3]heptan-2-yl]-[3-[6-[[1-(trifluoromethyl)cyclopropyl]amino]-3-pyridyl]azetidin-1-yl]methanone]	11.1
N#Cc1ccc(S(=O)(=O)N2CC3(CN(C(=O)N4CC5(CC(n6cnc(C7CC7)n6)C5)C4)C3)C2)cc1 [Example 308]	138
O=C(N1CC(Oc2ccc(Cl)cc2Cl)C1)N1CC2(CC(n3cnc(C4CC4)n3)C2)C1 [Example 98, (6-(3-cyclopropyl-1H-1,2,4-triazol-1-yl)-2-azaspiro[3.3]heptan-2-yl)(3-(2,4-dichlorophenoxy)azetidin-1-yl)methanone]	2.8
O=C(N1CC2(CCN(Cc3ccc(C(F)(F)F)cn3)CC2)C1)N1CC2(CC(n3cnc(C4CC4)n3)C2)C1 [Example 463, [6-(3-cyclopropyl-1,2,4-triazol-1-yl)-2-azaspiro[3.3]heptan-2-yl]-[7-[[5-(trifluoromethyl)-2-pyridyl]methyl]-2,7-diazaspiro[3.5]nonan-2-yl]methanone]	2.42
CC(C)(C)n1cc(C2CN(C(=O)N3CC4(CC(n5cnc(C6CC6)n5)C4)C3)C2)cn1 [Example 181, [3-(1-tert-butylpyrazol-4-yl)azetidin-1-yl]−[6-(3-cyclopropyl-1,2,4-triazol-1-yl)-2-azaspiro[3.3]heptan-2-yl]methanone]	4610
CC(C)(C)c1nc(-c2ccc(C(=O)N3CC4(CC(n5cnc(C6CCC6)n5)C4)C3)cc2)no1 [Example 90, [4-(5-tert-butyl-1,2,4-oxadiazol-3-yl)phenyl]−[6-(3-cyclobutyl-1,2,4-triazol-1-yl)-2-azaspiro[3.3]heptan-2-yl]methanone]	4
O=C(N1CC(c2ccc(N3CC[C@@H](C(F)(F)F)C3)nc2)C1)N1CC2(CC(n3cnc(C4(O)CC4)n3)C2)C1 [Example 373, [6-[3-(1-hydroxycyclopropyl)-1,2,4-triazol-1-yl]-2-azaspiro[3.3]heptan-2-yl]-[3-[6-[(3R)-3-(trifluoromethyl)pyrrolidin-1-yl]-3-pyridyl]azetidin-1-yl]methanone]	3.24
N#Cc1cc(CC2CC3(C2)CN(C(=O)N2CC4(CC(c5ccc(C(F)(F)F)nc5)C4)C2)C3)ccc1C(F)(F)F [Example 536, 2-(trifluoromethyl)-5-[[2-[6-[6-(trifluoromethyl)-3-pyridyl]-2-azaspiro[3.3]heptane-2-carbonyl]-2-azaspiro[3.3]heptan-6-yl]methyl]benzonitrile]	13.9
CP(C)(=O)c1ccc(CC2CC3(C2)CN(C(=O)N2CC4(CC(n5cnc(C6CC6)n5)C4)C2)C3)cc1 [Example 376, [6-(3-cyclopropyl-1,2,4-triazol-1-yl)-2-azaspiro[3.3]heptan-2-yl]-[6-[(4-dimethyl-phosphorylphenyl)methyl]-2-azaspiro[3.3]heptan-2-yl]methanone]	4.07
CS(=O)(=O)c1cc(CC2CC3(C2)CN(C(=O)N2CC4(CC(n5cnc(C6(O)CC6)n5)C4)C2)C3)cc(C(F)(F)F)c1 [Example 359, [6-[3-(1-hydroxycyclopropyl)-1,2,4-triazol-1-yl]-2-azaspiro[3.3]heptan-2-yl]-[6-[[3-methylsulfonyl-5-(trifluoromethyl)phenyl]methyl]-2-azaspiro[3.3]heptan-2-yl]methanone]	1
O=C(N1CC2(CC(n3cnc(C4CC4)n3)C2)C1)N1CC2(C1)CN(S(=O)(=O)c1cccnc1C(F)(F)F)C2 [Example 297, [6-(3-cyclopropyl-1,2,4-triazol-1-yl)-2-azaspiro[3.3]heptan-2-yl]-[2-[[2-(trifluoromethyl)-3-pyridyl]sulfonyl]-2,6-diazaspiro[3.3]heptan-6-yl]methanone]	94.4
O=C(N1CC(OCc2ccc(OC(F)(F)F)cc2)C1)N1CC2(CC(n3cnc(C4CC4)n3)C2)C1 [Example 71, (6-(3-cyclopropyl-1H-1,2,4-triazol-1-yl)-2-azaspiro[3.3]heptan-2-yl)(3-((4-(trifluoromethoxy)ben-zyl)oxy)azetidin-1-yl)methanone]	7.1
